Columns and labels:
[1] = system: fire ant workers; assay: Five biogenic amines fed to fire ant workers as droplets; format: in vivo, Solenopsis invicta; details: 1% (w/v) as HCl salts in 10% sucrose, 48 h, 60 workers
Protocol: Tyramine is one of five biogenic amines that may be found in insects (e.g., dopamine, histamine, octopamine, serotonin, and tyramine). The experiment in this example tests whether fire ant worker mortality effects observed with tyramine may be a general result of the ants ingesting greater than normal amounts of a biogenic amine. To test this hypothesis groups of 20 fire ant worker ants were starved for 24 hours and fed a 1% (w/v) biogenic amine in 10% sucrose solution. Treatments and sucrose were presented to the worker ants as a 25 microliter droplet on a 2 cm^2 piece of silicon treated filter paper. Each treatment and control were performed in triplicate for a total of 60 worker ants per treatment and control. Mortality was monitored for the first 7-8 h after introduction of the sucrose solutions, then at 24 h. The feeding/monitoring sequence was repeated for another 24 h period for a total of 48 h. The results are shown in FIG. 12A-12B in the form of Kaplan-Meier mortality curves.

[2] = system: fire ant workers; assay: Example 14 feeding experiments: fire ant worker mortality
[3] = system: female sexuals (alates); assay: Worker attraction to poison sac extracts of dealates (queen pheromone bioassay); format: in vivo, Solenopsis invicta; details: extracts from dealates of fed sub-colonies

Row | Structure (SMILES) | worker mortality (Kaplan-Meier) [1] | fire ant worker mortality versus 10% sucrose control ([2]; 1.0% in 10% sucrose) | other results
1 | NCCc1ccc(O)c(O)c1 [dopamine] | did not result in significant mortality |  | 
2 | NCCc1ccc(Cl)cc1 [4-chlorophenethylamine, 4-chloro-phenethylamine] |  | Significant, but low, worker mortality | 
3 | COc1cccc(CCN)c1 [3-methoxy-phenethylamine] |  | No difference in mortality | 
4 | NCCc1ccc(F)cc1 [4-flurophenethylamine] |  | Significant, but low, worker mortality | 
5 | NCC(O)c1ccc(O)cc1 (stereo not drawn) [octopamine] | did not result in significant mortality |  | 
6 | CN(C)CCc1ccc(O)cc1 [N,N-dimethyl-tyramine] |  | no difference in mortality | 
7 | NCCc1c[nH]cn1 [histamine] | did not result in significant mortality |  | 
8 | COc1ccccc1CCN [2-methoxy-phenethylamine] |  | No difference in mortality | 
9 | COc1ccc(CCN)cc1Cl [3-chloro-4-methoxyphenethylamine] |  | significantly different from the 10% sucrose control | fire ant worker mortality versus 10% sucrose control ([2]; 0.1% in 10% sucrose): significantly different from the 10% sucrose control; mortality ([2]; 1.0 and 0.1% in 10% sucrose): about 8%
10 | COc1ccc(CCN)cc1 [4-methoxy-phenethylamine] |  | No difference in mortality | 
11 | NCCc1ccc(Br)cc1 [4-bromophenethylamine, 4-bromo-phenethylamine] |  | Significant, but low, worker mortality | 
12 | NCCc1c[nH]c2ccc(O)cc12 [serotonin] | did not result in significant mortality |  | 
13 | Cl.NCCc1ccc(O)cc1 [tyramine HCl] | statistically greater mortality than the control and the other 4 biogenic amines |  | worker attraction to poison sac extracts compared among active treatments [3]: not different from tyramine or N-methyl tyramine; worker attraction to poison sac extracts versus N,N-dimethyl tyramine treatment and controls [3]: significantly different from those from the N,N-dimethyl tyramine treatment and the sucrose and hexane controls
14 | CNCCc1ccc(O)cc1.Cl [N-methyl-tyramine (HCl)] |  | significantly different from the sucrose control | fire ant worker mortality versus 10% sucrose control ([2]; 0.01% in 10% sucrose): significantly different from the sucrose control; speed of worker mortality versus tyramine at the same concentration ([2]; 0.01%, p<0.01): significantly faster than the 0.01% tyramine; fire ant worker mortality versus 10% sucrose control ([2]; 0.1% in 10% sucrose): significantly different from the sucrose control; speed of worker mortality versus tyramine at the same concentration ([2]; 0.1%, p=0.22): not significantly faster than the 0.1% tyramine; speed of worker mortality versus tyramine at the same concentration ([2]; 1.0%, p<0.001): significantly faster worker mortality than the 1.0% tyramine; speed of action compared to the N-methyl tyramine free-base ([2]; in vivo): appears to be quicker acting

— patent publication US10568320B2, “Biologically-based control methods for insect pests” (The United States of America, as represented by the …, priority 2017, dated 2020)
